Results published in patent US6800418B2, “Fluorine-containing photosensitive polymer having hydrate structure and resist composition comprising the same” (Samsung Electronics, priority 2001, dated 2004).

assay: Measurement of pKa Value; assay type: physicochemical; conditions: pKa value of monomers, measured to identify whether the structure is dissolvable in developers
Protocol: To determine whether a repeating monomer unit of a polymer according to the present invention has a structure dissolvable in common developers, pKa value was measured.
The pKa value was measured for a variety of monomers having different structures to identify whether hydrate is dissolvable in developers.

Structure (SMILES)	pKa
C=Cc1ccc(O)cc1 [MONOMER 2, vinylphenol]	9.97
C=C(C)C(=O)O [MONOMER 3]	4.58

Now from value to molecule:

pKa	Structure (SMILES)
8.33	OC(C1CC2C=CC1C2)C(F)(F)C(O)(O)C(F)(F)F (centres unmarked) [MONOMER 6]
8.96	C=Cc1ccc(C(O)(C(F)(F)F)C(F)(F)F)cc1 [MONOMER 5]
9.67	OC(CC1CC2C=CC1C2)(C(F)(F)F)C(F)(F)F (centres unmarked) [MONOMER 4]
